Reference: publication PMC5039424 (2016)

Tested on: yeast tRNA^Phe (RNA, tRNA) GCGGAUUUAGCUCAGUUGGGAGAGCGCCAGACUGAAGAUCUGGAGGUCCUGUGUUCGAUCCACAGAAUUCGCACCA
Assay: inhibition of lead(II)-induced cleavage, gel
Conditions: 10 mM Mg2+, 1 mM NH4+, 0.5 mM Pb2+; 50% inhibition of Pb2+ cleavage; 50 mM Tris-HCl pH 7.5; RNA 2.4 μM

Question: Cc1cc2nc3ccc(N(C)C)cc3[s+]c2cc1N was tested. Which Ki did it give?
Answer: 70 ± 20 µM
